Results: PubChem BioAssay (NCI)
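Each compound was tested at five concentrations against cells in 96-well plates for 48 hours. TGI: total growth inhibition.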

Columns and labels:
Assay in all cases: growth of human tumour cells (NCI), 48 h
A549 NSCLC = system: A549 NSCLC
CCRF-CEM leukemia = system: CCRF-CEM leukemia
COLO 205 colon = system: COLO 205 colon
HCT-116 colon = system: HCT-116 colon
HCT-15 colon = system: HCT-15 colon
HOP-62 NSCLC = system: HOP-62 NSCLC
HS 578T breast = system: HS 578T breast
MCF7 breast = system: MCF7 breast
MDA-MB-231 breast = system: MDA-MB-231 breast
MDA-MB-435 = system: MDA-MB-435
MDA-N = system: MDA-N
NCI-H23 lung = system: NCI-H23 lung
NCI-H460 lung = system: NCI-H460 lung
NCI-H522 lung = system: NCI-H522 lung
NCI/ADR-RES ovarian = system: NCI/ADR-RES ovarian
OVCAR-4 ovarian = system: OVCAR-4 ovarian
OVCAR-5 ovarian = system: OVCAR-5 ovarian
SK-MEL-2 melanoma = system: SK-MEL-2 melanoma
UO-31 renal = system: UO-31 renal

Row | Structure (SMILES) | TGI (A549 NSCLC) [µM] | TGI (CCRF-CEM leukemia) [µM] | TGI (COLO 205 colon) [µM] | TGI (HCT-116 colon) [µM] | TGI (HCT-15 colon) [µM] | TGI (HOP-62 NSCLC) [µM] | TGI (HS 578T breast) [µM] | TGI (MCF7 breast) [µM] | TGI (MDA-MB-231 breast) [µM] | TGI (MDA-MB-435) [µM] | TGI (MDA-N) [µM] | TGI (NCI-H23 lung) [µM] | TGI (NCI-H460 lung) [µM] | TGI (NCI-H522 lung) [µM] | TGI (NCI/ADR-RES ovarian) [µM] | TGI (OVCAR-4 ovarian) [µM] | TGI (OVCAR-5 ovarian) [µM] | TGI (SK-MEL-2 melanoma) [µM] | TGI (UO-31 renal) [µM]
1 | CCOC(=O)C(/C=N\C(=S)Nc1ccc(Cl)c(Cl)c1)=C(/O)c1ccccc1 | > 100 | > 100 | > 100 | > 100 | > 100 | > 100 | 10.5 | > 100 | 90.9 | 93.5 | > 100 | > 100 | > 100 | 26.1 | > 100 | > 100 | > 100 | 77.1 | 16.6
2 | CC(C)CC1C(=O)NCCC(NC(=O)C(N)Cc2ccc(O)cc2)C(=O)NC(Cc2ccccc2)C(=O)NC(Cc2ccccc2)NC1=O (stereo not drawn) | > 100 | > 100 | > 100 | > 100 | > 100 | > 100 | > 100 | > 100 | > 100 | > 100 | > 100 | > 100 | > 100 | > 100 | > 100 | > 100 | > 100 | > 100 | > 100
3 | Nc1nc(N)c(NC(=O)CCCO)c(=O)[nH]1 | > 100 | > 100 | > 100 | > 100 | > 100 | > 100 | > 100 | > 100 | > 100 | > 100 | > 100 | > 100 | > 100 | > 100 | > 100 | > 100 | > 100 | > 100 | > 100
4 | Cc1ccc(C)n1-n1c(Cc2ccccc2)n[nH]c1=O | > 100 | > 100 | > 100 | > 100 | > 100 | > 100 | > 100 | > 100 | > 100 | > 100 | > 100 | – | > 100 | > 100 | > 100 | > 100 | > 100 | > 100 | > 100
5 | Cc1nc2ccc(S(=O)(=O)Nc3ccccc3)cc2c(=O)n1NC(=O)CNc1ccccc1 | > 100 | > 100 | > 100 | > 100 | > 100 | > 100 | > 100 | > 100 | > 100 | > 100 | > 100 | > 100 | > 100 | > 100 | > 100 | > 100 | > 100 | > 100 | > 100
6 | CCN1CCN(c2ccc(Nc3ccnc4ccc5c(nnn5C)c34)cc2)CC1 | 22.3 | 54.7 | 15.4 | 14.3 | 16.4 | 17.4 | 31.9 | 14.8 | 27.2 | 17.9 | 14.4 | 29.4 | 11.9 | 6.21 | 36.7 | 48.2 | 24.2 | 24.8 | 25.7
7 | Cc1nc2sc3ccccc3n2c(=O)c1N=Nc1ccc(Br)cc1 | > 100 | > 100 | > 100 | > 100 | > 100 | > 100 | > 100 | > 100 | > 100 | > 100 | > 100 | > 100 | > 100 | > 100 | > 100 | > 100 | > 100 | > 100 | –
8 | COC(=O)c1ccccc1C1CN=NC12Cc1ccc(C)c(C)c1C2=O (stereo not drawn) | > 100 | > 100 | > 100 | > 100 | > 100 | > 100 | > 100 | > 100 | > 100 | > 100 | > 100 | > 100 | > 100 | > 100 | > 100 | > 100 | > 100 | > 100 | > 100
9 | COc1cc(C)c2c(=O)c3ccccc3n(C)c2c1 | > 100 | 75.4 | 91.1 | 34 | > 100 | – | 72.6 | > 100 | > 100 | > 100 | > 100 | 77 | > 100 | 5.74 | > 100 | 45.6 | > 100 | 78.3 | –
10 | O=C1C=C(Sc2ccccc2)c2nccc3c2c1nc1ccccc13 | > 100 | 12.3 | 31.5 | 30.3 | 26 | 32.2 | 46.5 | 28.7 | 38 | 31.2 | 33.3 | 73.2 | 84.5 | 15.8 | > 100 | 31.4 | > 100 | 27.3 | 27.3
11 | O=C1c2ccccc2C(=O)[C@@]23O[C@@]12C1(Oc2cccc4cccc(c24)O1)[C@@H]1O[C@@H]1[C@@H]3O | > 49 | > 38.7 | 27 | 15.1 | 17.6 | 25.7 | 51.8 | 14.6 | 41.1 | > 59.6 | 32 | 29.6 | 23.6 | 15.6 | 15.7 | 17.4 | 39.3 | 42.1 | 24.4
12 | N#Cc1c(O)c(N=Nc2ccccc2F)c(=O)n2c1[nH]c1ccccc12 | > 100 | > 100 | > 100 | > 100 | > 100 | > 100 | 65.4 | > 100 | 90.8 | > 100 | > 100 | > 100 | > 100 | 94.9 | > 100 | > 100 | > 100 | 57 | > 100
13 | COc1cc(CNc2ccc3nc4n(c(=O)c3c2)CCCCC4)cc(OC)c1OC | > 100 | > 100 | > 100 | > 100 | > 100 | > 100 | > 100 | > 100 | > 100 | > 100 | > 100 | > 100 | > 100 | > 100 | > 100 | > 100 | > 100 | > 100 | > 100
14 | c1ccc(Cc2nc(Cc3n[nH]c(Cc4ccccc4)n3)n[nH]2)cc1 | > 100 | > 100 | > 100 | > 100 | > 100 | > 100 | > 100 | > 100 | > 100 | > 100 | > 100 | > 100 | – | > 100 | > 100 | > 100 | > 100 | > 100 | > 100
15 | C=CCN1C(=O)/C(=C/c2ccc(OC)cc2)NC1=S | > 100 | 13.1 | > 100 | > 100 | > 100 | > 100 | > 100 | > 100 | > 100 | > 100 | > 100 | > 100 | > 100 | > 100 | > 100 | > 100 | > 100 | > 100 | > 100
16 | Cc1ccc(NC(=O)CSc2nc(C)nc3c2sc(=S)n3-c2ccccc2)cc1 | > 10 | > 10 | > 10 | > 10 | > 10 | 5.08 | 6.3 | > 10 | > 10 | > 10 | > 10 | > 10 | > 10 | > 10 | > 10 | 6.06 | > 10 | > 10 | –
17 | Cc1ccc(N=Nc2ccc(O)c(CN(C)C)c2)cc1C | > 100 | 76.5 | 25.6 | > 100 | 54 | 52.5 | 56.2 | > 100 | > 100 | 40.4 | > 100 | > 100 | 42.6 | 28.3 | 52.6 | > 100 | > 100 | 34.7 | 53.2
18 | O=C(O)CN1CCN2CCOCCOCCN(CC1)CCN(CC(=O)O)CC2 | > 100 | > 100 | > 100 | > 100 | > 100 | > 100 | > 100 | > 100 | > 100 | > 100 | > 100 | – | > 100 | > 100 | > 100 | > 100 | > 100 | > 100 | > 100
19 | [O-][n+]1onc2c1CCC(=N\O)/C2=N/Nc1ccccc1 | > 100 | > 100 | > 100 | > 100 | > 100 | > 100 | > 100 | > 100 | > 100 | > 100 | > 100 | > 100 | > 100 | > 100 | > 100 | > 100 | > 100 | > 100 | > 100
20 | CC(C)=NN/C(=N\S(=O)(=O)c1ccc(C)cc1)Nc1ccc(Cl)cc1 | > 100 | > 100 | > 100 | > 100 | > 100 | > 100 | > 100 | > 100 | > 100 | > 100 | > 100 | > 100 | > 100 | > 100 | > 100 | > 100 | > 100 | > 100 | > 100
21 | Cc1c(C)c2c(c(N)c1C#N)C(=O)N(Nc1ccccc1)C2=O | > 100 | > 100 | > 100 | > 100 | > 100 | – | > 100 | > 100 | > 100 | > 100 | > 100 | – | > 100 | > 100 | > 100 | > 100 | > 100 | > 100 | > 100
22 | CC(C)(C)c1cc(C2NCCO2)cc(C(C)(C)C)c1O (stereo not drawn) | – | > 100 | > 100 | > 100 | > 100 | > 100 | > 100 | > 100 | 54.8 | > 100 | > 100 | > 100 | > 100 | > 100 | > 100 | > 100 | > 100 | > 100 | –
23 | COc1cc(/C=C2\C[C@H]3[C@@H]4CC=C5C=C(N6CCCC6)CC[C@]5(C)[C@H]4CC[C@]3(C)C2=O)cc(OC)c1OC | > 51.7 | > 100 | 10.7 | 3.93 | 6.53 | 7.17 | 6.21 | 11.3 | 6.62 | 5.83 | 4.2 | 7.96 | – | 2.88 | > 23.3 | 22.5 | 30.8 | 13 | 8.48
24 | COc1c(C)c2c(c(=O)c3c(C)cccc3n2C)c2c1c(=O)c1c(C)cccc1n2C | > 10 | > 10 | > 10 | > 10 | > 10 | > 10 | > 10 | > 10 | > 10 | > 10 | > 10 | > 10 | > 10 | > 10 | > 10 | > 10 | > 10 | > 10 | > 10
25 | COC(=O)c1ccccc1CC1Cc2ccc3c(c2C1)CCC3 (stereo not drawn) | > 100 | 36.9 | 34.5 | > 100 | 55.3 | > 100 | > 100 | 30.1 | 50.5 | 57.9 | > 100 | > 100 | > 100 | 46.9 | 45.7 | > 100 | 91.3 | 30.7 | > 100
